Test results: patent US12649751B2 (Arcus Biosciences, Inc., priority 2022, dated 2026)
Read-outs that look alike come from different tables or passages of the source.

Tests used:
[1] = test system: p-SLP-76 (Ser376) in Jurkat cells; test: pSLP76 Cellular Assay (AlphaLISA SureFire Ultra p-SLP-76 (Ser376), anti-CD3 activated Jurkat cells); assay type: cell-based; settings: Homo sapiens, read-out: Cellular Potency
Summary of the method: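 Jurkat cells, serum-starved overnight in Opti-MEM then in HBSS, preincubated 1 h at 37 °C with 22-point 2-fold compound dilutions, then stimulated with anti-CD3 (0.025 mg/ml added solution) for 45 min. Lysate p-SLP-76 (Ser376) measured by AlphaLISA at 570 nm; IC50 from 4-parameter logistic fit.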

[2] = target: HPK1 (Homo sapiens, UniProt Q92918); test: HPK1 Biochemical Assay (ADP-Glo luminescence; low ATP 10 μM or high ATP 200 μM)
[3] = pSLP76 (Ser376) AlphaLISA, anti-CD3 activated Jurkat cells
[4] = HPK1 ADP-Glo assay, high ATP (200 μM ATP, 5 nM HPK1), read-out: Biochemical Potency (high ATP)
[5] = Jurkat cells, anti-CD3 stimulation, pSLP76
[6] = 2 nM HPK1, 10 μM ATP, read-out: Biochemical Potency (low ATP)

Chain of HPK1 (Q92918 whole entry, species assumed): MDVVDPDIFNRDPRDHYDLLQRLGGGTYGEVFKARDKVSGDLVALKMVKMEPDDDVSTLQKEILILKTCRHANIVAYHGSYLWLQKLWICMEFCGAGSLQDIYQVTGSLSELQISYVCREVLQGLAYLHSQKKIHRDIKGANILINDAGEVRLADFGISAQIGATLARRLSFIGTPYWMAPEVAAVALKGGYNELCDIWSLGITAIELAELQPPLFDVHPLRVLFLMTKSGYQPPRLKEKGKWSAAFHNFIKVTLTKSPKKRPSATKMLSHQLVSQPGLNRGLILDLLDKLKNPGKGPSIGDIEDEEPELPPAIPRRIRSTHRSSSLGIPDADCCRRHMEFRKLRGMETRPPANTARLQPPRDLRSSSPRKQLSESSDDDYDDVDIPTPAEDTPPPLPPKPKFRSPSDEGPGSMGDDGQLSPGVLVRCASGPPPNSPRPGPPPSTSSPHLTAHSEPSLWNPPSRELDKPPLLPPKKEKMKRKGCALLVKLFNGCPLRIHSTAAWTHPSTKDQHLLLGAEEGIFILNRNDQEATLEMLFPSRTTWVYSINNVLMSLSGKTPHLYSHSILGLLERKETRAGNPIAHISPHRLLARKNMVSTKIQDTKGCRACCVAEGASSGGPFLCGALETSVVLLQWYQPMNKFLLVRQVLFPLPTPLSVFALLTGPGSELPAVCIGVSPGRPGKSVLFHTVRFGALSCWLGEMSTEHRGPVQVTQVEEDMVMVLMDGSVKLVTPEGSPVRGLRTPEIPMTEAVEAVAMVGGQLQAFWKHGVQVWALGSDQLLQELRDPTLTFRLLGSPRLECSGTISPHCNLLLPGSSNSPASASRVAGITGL

| SMILES | IC50 [1, 3] | IC50 [2, 4] | IC50 [1, 5] | IC50 [2, 6] | further results |
| --- | --- | --- | --- | --- | --- |
| Cc1cc(Nc2cc3nc(-c4ccnc(N5C6CCC5COC6)c4)sc3cn2)nc(N2C[C@@H]3C[C@H]2CN3CCO)n1 [Example 447] | < 100 nM | < 100 nM | – | – | – |
| Cc1cc(Nc2cc3nc(-c4ncc(C)o4)sc3cn2)nc(N2C[C@@H]3C[C@H]2CN3CCO)n1 [Example 359] | < 100 nM | < 100 nM | – | – | – |
| CC(C)c1cccnc1-c1nc2cc(Nc3cccc(N4C[C@@H]5C[C@H]4CN5C)n3)ncc2s1 [Example 93, 6-[(1S,4S)-5-Methyl-2,5-diazabicyclo[2.2.1]heptan-2-yl]-N-{2-[3-(propan-2-yl)pyridin-2-yl]-[1,3]thiazolo[5,4-c]pyridin-6-yl}pyridin-2-amine] | – | – | 100 to 1000 nM | < 100 nM | – |
| Cc1cc(Nc2cc3nc(-c4cnn5ccccc45)sc3cn2)nc(N2C[C@@H]3C[C@H]2CN3C)n1 [Example 386] | 1000 to 5000 nM | < 100 nM | – | – | – |
| CN(C)Cc1nc(Nc2cc3nc(-c4c(F)cccc4F)sc3cn2)ccc1N1CCOCC1 [Example 1, N-[2-(2,6-Difluorophenyl)-[1,3]thiazolo[5,4-c]pyridin-6-yl]-6-[(dimethylamino)methyl]-5-(morpholin-4-yl)pyridin-2-amine] | – | – | – | < 100 nM | IC50 ([1]; Jurkat): > 5000 nM |
| CC(C)(O)c1cc(-c2nc3cc(Nc4ccnc(N5C[C@@H]6C[C@H]5CN6)n4)ncc3s2)ccn1 [Example 120, 2-{4-[6-({2-[(1S,4S)-2,5-Diazabicyclo[2.2.1]heptan-2-yl]pyrimidin-4-yl}amino)-[1,3]thiazolo[5,4-c]pyridin-2-yl]pyridin-2-yl}propan-2-ol] | – | – | 100 to 1000 nM | < 100 nM | – |
| CN1C[C@@H]2C[C@H]1CN2c1nccc(Nc2cc3nc(-c4ccnc(N5CCOCC5)c4)sc3cn2)n1 [Example 268, 2-[(1S,4S)-5-Methyl-2,5-diazabicyclo[2.2.1]heptan-2-yl]-N-{2-[2-(morpholin-4-yl)pyridin-4-yl]-[1,3]thiazolo[5,4-c]pyridin-6-yl}pyrimidin-4-amine] | – | – | 100 to 1000 nM | < 100 nM | – |
| CC(C)n1cc(-c2nc3cc(Nc4ccc(N5CCOCC5)c(CN5CCCC5)n4)ncc3s2)cn1 [Example 23, 5-(Morpholin-4-yl)-N-{2-[1-(propan-2-yl)-1H-pyrazol-4-yl]-[1,3]thiazolo[5,4-c]pyridin-6-yl}-6-[(pyrrolidin-1-yl)methyl]pyridin-2-amine] | – | – | > 5000 nM | < 100 nM | – |
| Cc1cc(Nc2cc3nc(-c4ccnc(N5CCS(=O)(=O)CC5)c4)sc3cn2)nc(N2C[C@@H]3C[C@H]2CN3C)n1 [Example 478] | 100 to 1000 nM | < 100 nM | – | – | – |
| Cc1cccnc1-c1nc2cc(Nc3cc(C(C)(C)O)nc(N4C[C@@H]5C[C@H]4CN5C)n3)ncc2s1 [Example 304, 2-{2-[(1S,4S)-5-methyl-2,5-diazabicyclo[2.2.1]heptan-2-yl]-6-{[2-(3-methylpyridin-2-yl)-[1,3]thiazolo[5,4-c]pyridin-6-yl]amino}pyrimidin-4-yl}propan-2-ol] | 100 to 1000 nM | < 100 nM | – | – | – |
| CN(C)C(=O)c1cccc(-c2nc3cc(Nc4cccc(N5C[C@@H]6C[C@H]5CN6C)n4)ncc3s2)c1 [Example 137, N,N-Dimethyl-3-[6-({6-[(1S,4S)-5-methyl-2,5-diazabicyclo[2.2.1]heptan-2-yl]pyridin-2-yl}amino)-[1,3]thiazolo[5,4-c]pyridin-2-yl]benzamide] | – | – | 100 to 1000 nM | < 100 nM | – |
| Cc1cc(Nc2cc3nc(-c4cc(C(=O)N(C)C)cc(C5CC5)c4)sc3cn2)nc(N2C[C@@H]3C[C@H]2CN3CCO)n1 [Example 552] | < 100 nM | < 100 nM | – | – | – |
| CCN1C[C@@H]2C[C@H]1CN2c1nc(C)cc(Nc2cc3nc(-c4cncc(N5C[C@H]6COC[C@H]6C5)c4)sc3cn2)n1 [Example 472] | 100 to 1000 nM | < 100 nM | – | – | – |
| Cc1cccc(F)c1-c1nc2cc(Nc3ccc(N4CCOCC4)c(CN4CCCS4(=O)=O)n3)ncc2s1 [Example 30, 2-[(6-{[2-(2-Fluoro-6-methylphenyl)-[1,3]thiazolo[5,4-c]pyridin-6-yl]amino}-3-(morpholin-4-yl)pyridin-2-yl)methyl]-1λ^6,2-thiazolidine-1,1-dione] | – | – | 100 to 1000 nM | < 100 nM | – |
| Cc1cccnc1-c1nc2cc(Nc3ccc(C)c(N4C[C@@H](N)C[C@H]4CO)n3)ncc2s1 [Example 65, [(2S,4S)-4-Amino-1-(3-methyl-6-{[2-(3-methylpyridin-2-yl)-[1,3]thiazolo[5,4-c]pyridin-6-yl]amino}pyridin-2-yl)pyrrolidin-2-yl]methanol] | – | – | 100 to 1000 nM | < 100 nM | – |
| Cc1cc(Nc2cc3nc(-c4cccc(C(=O)N(C)C)c4)sc3cn2)nc(N2C[C@@H]3C[C@H]2CN3C[C@@H]2CCOC2)n1 [Example 488] | 100 to 1000 nM | < 100 nM | – | – | – |
| CNS(=O)(=O)c1cccc(-c2nc3cc(Nc4ccnc(N5C[C@@H]6C[C@H]5CN6C)n4)ncc3s2)c1 [Example 291, N-methyl-3-[6-({2-[(1S,4S)-5-methyl-2,5-diazabicyclo[2.2.1]heptan-2-yl]pyrimidin-4-yl}amino)-[1,3]thiazolo[5,4-c]pyridin-2-yl]benzene-1-sulfonamide] | – | – | 100 to 1000 nM | < 100 nM | – |

| SMILES | IC50 [1, 3] | IC50 [2, 4] | IC50 [1, 5] | IC50 [2, 6] | further results |
| --- | --- | --- | --- | --- | --- |
| CN(C)Cc1nc(Nc2cc3nc(-c4c(F)cccc4Cl)sc3cn2)ccc1N1CCOCC1 [Example 20, N-[2-(2-Chloro-6-fluorophenyl)-[1,3]thiazolo[5,4-c]pyridin-6-yl]-6-[(dimethylamino)methyl]-5-(morpholin-4-yl)pyridin-2-amine] | – | – | 100 to 1000 nM | < 100 nM | – |
| CCN1C[C@@H]2C[C@H]1CN2c1nc(C)cc(Nc2cc3nc(-c4cccc(C(=O)N5CC[C@H](OC)C5)c4)sc3cn2)n1 [Example 534] | 100 to 1000 nM | < 100 nM | – | – | – |
| Cc1cccnc1-c1nc2cc(Nc3ccc(C)c(N4C[C@@H]5C[C@H]4CN5C)n3)ncc2s1 [Example 101, 5-Methyl-6-[(1S,4S)-5-methyl-2,5-diazabicyclo[2.2.1]heptan-2-yl]-N-[2-(3-methylpyridin-2-yl)-[1,3]thiazolo[5,4-c]pyridin-6-yl]pyridin-2-amine] | – | – | 100 to 1000 nM | < 100 nM | – |
| Cc1c(N)cncc1-c1nc2cc(Nc3ccc(N4CCOCC4)c(CN(C)C)n3)ncc2s1 [Example 29, N-[2-(5-Amino-4-methylpyridin-3-yl)-[1,3]thiazolo[5,4-c]pyridin-6-yl]-6-[(dimethylamino)methyl]-5-(morpholin-4-yl)pyridin-2-amine] | – | – | 100 to 1000 nM | < 100 nM | – |
| CCn1cc(-c2nc3cc(Nc4cc(C)nc(N5C[C@@H]6C[C@H]5CN6CCO)n4)ncc3s2)cn1 [Example 358] | < 100 nM | < 100 nM | – | – | – |
| FC(F)n1cc(-c2nc3cc(Nc4ccc(C5CCOCC5)c(CN5CCCC5)n4)ncc3s2)cn1 [Example 224, N-{2-[1-(Difluoromethyl)-1H-pyrazol-4-yl]-[1,3]thiazolo[5,4-c]pyridin-6-yl}-5-(oxan-4-yl)-6-[(pyrrolidin-1-yl)methyl]pyridin-2-amine] | – | – | 1000 to 5000 nM | < 100 nM | – |
| Cc1cc(Nc2cc3nc(-c4ccnc(N5CCO[C@H](C)C5)c4)sc3cn2)nc(N2C[C@@H]3C[C@H]2CN3CCO)n1 [Example 451] | 100 to 1000 nM | < 100 nM | – | – | – |
| Cc1cc(Nc2cc3nc(-c4cccc(C(=O)N(C)C)c4)sc3cn2)nc(N2C[C@@H]3C[C@H]2CN3Cc2cnn(C)c2)n1 [Example 494] | 100 to 1000 nM | < 100 nM | – | – | – |
| Cc1cc(Nc2cc3nc(-c4cccc(C(=O)N[C@H]5CCCOC5)c4)sc3cn2)nc(N2C[C@@H]3C[C@H]2CN3CCO)n1 [Example 541] | 100 to 1000 nM | < 100 nM | – | – | – |
| CN(C)Cc1nc(Nc2cc3nc(-c4cccnc4)sc3cn2)ccc1N1CCOCC1 [Example 6, 6-[(Dimethylamino)methyl]-5-(morpholin-4-yl)-N-[2-(pyridin-3-yl)-[1,3]thiazolo[5,4-c]pyridin-6-yl]pyridin-2-amine] | – | – | 100 to 1000 nM | < 100 nM | – |
| CN1C[C@@H]2C[C@H]1CN2c1nc(Nc2cc3nc(-c4cccc(C(C)(C)O)c4)sc3cn2)cc(C2CCOCC2)n1 [Example 440] | < 100 nM | < 100 nM | – | – | IC50 ([2]; HPK1 ADP-Glo assay, low ATP (10 μM ATP, 2 nM HPK1), read-out: Biochemical Potency (low ATP)): < 100 nM |
| CCN1C[C@@H]2C[C@H]1CN2c1nc(C)cc(Nc2cc3nc(-c4cccc(S(=O)(=O)CC(C)C)c4)sc3cn2)n1 [Example 339] | 100 to 1000 nM | < 100 nM | – | – | – |
| c1cncc(-c2nc3cc(Nc4ccc([C@H]5CCOC5)c(CN5CCCC5)n4)ncc3s2)c1 (single isomer, unassigned) [Example 260, 5-[(3R or 3S)—Oxolan-3-yl]-N-[2-(pyridin-3-yl)-[1,3]thiazolo[5,4-c]pyridin-6-yl]-6-[(pyrrolidin-1-yl)methyl]pyridin-2-amine] | – | – | 100 to 1000 nM | < 100 nM | – |
| CC(=O)N1CCn2ncc(-c3nc4cc(Nc5cc(C)nc(N6C[C@@H]7C[C@H]6CN7C)n5)ncc4s3)c2C1 [Example 569] | 100 to 1000 nM | < 100 nM | – | – | – |
| Cc1cc(Nc2cc3nc(-c4ncccc4OC(F)F)sc3cn2)nc(N2C[C@@H]3C[C@H]2CN3C)n1 [Example 468] | 100 to 1000 nM | < 100 nM | – | – | – |
| C[C@H]1COCCN1c1nc2cc(Nc3ccc(C4CCOCC4)c(CN4CCCC4)n3)ncc2s1 [Example 235, N-{2-[(3S)-3-Methylmorpholin-4-yl]-[1,3]thiazolo[5,4-c]pyridin-6-yl}-5-(oxan-4-yl)-6-[(pyrrolidin-1-yl)methyl]pyridin-2-amine] | – | – | 1000 to 5000 nM | < 100 nM | – |
